Data on 17 substances can be found in patent US10729749B2, “Neurodegenerative disorders” (priority 2014, dated 2020).

In general, viability refers to a read-out of living cells in per cent, often relative to untreated cells.

Holding throughout (format): cell-based
The subject of data set [1] is PC12 cells. The data set can be described thus: Value coefficient (AChE release vs PC12 cell viability) and filter selection. The conditions noted are these: for Value AChE/Viability: 1.0 to 1.1 = protective, control = 1.
Text: AChE release vs PC12 cell viability (for which there is a significant negative correlation); • 2. In silico binding to the allosteric site of the α7 nicotinic-receptor; • 3. Calcium influx into PC12 cells; and • 4. Peptide size.
The test system of data set [2] is PC12 cells. The data set can be described thus: Calcium fluorometry (Fluo-8, acetylcholine-induced calcium influx). Also noted: Calcium: scale not given here. The conditions noted are these: for Calcium: calcium influx value, control based on acetylcholine alone. The source says: A final criterion used to determine active peptides is the amount of calcium influx into PC12 cells caused by the peptide. The calcium influx value can be calculated as described in the methods section. The calcium value corresponds to the result from the experiment when applying T30 or Aβ alone or in conjunction with the small peptides. The control value for these experiments is based on the calcium influx induced by acetylcholine alone. Preferably, the peptide, derivative or analogue thereof has a calcium influx value of less than 120, and more preferably a value of 97-120.
PC12 cells are plated in 200 μl of complete growth medium the day before the experiment in 96 well plates. On the day of the experiment, the Fluo-8 solution (Abcam) is prepared (as per provider protocol). Subsequently, 100 μl of growth medium is removed and 100 μl of Fluo-8 solution is added. Treatments with T30 or Aβ in conjunction with NBP-14 or small peptides are added and incubated for 30 minutes in the incubator and 30 minutes room temperature.
After 1 hour, the plate is placed in the fluorescence plate reader (Fluostar). Before reading the fluorescence, acetylcholine (ACh) 100 μM is prepared and placed in the Fluostar injector. For each well, the reading will be formed by a basal fluorescence followed by acetylcholine injection that will induce an increase of calcium via nicotinic receptors. The effects of the peptides are then evaluated.

Data set [3] relates to PC12 cells. The data set can be described thus: Acetylcholinesterase activity assay (AChE release from PC12 cells, Ellman reagent). To be noted: % AChE release compared to untreated control. As for the experimental part:
AChE activity was measured using the Ellman reagent that measures the presence of thiol groups as a result of AChE activity. Cells were plated the day before the experiment as for the cell viability assay. […] The Ellman reagent was prepared as a mixture of the 3 solutions in a ratio 33(A):3(B):4(C). Absorbance measurements were taken at regular intervals (3, 10, 30 and 60 mins) across experiments at 405 nm.
On the technique in general: Ellman's reagent forms a yellow product with free thiols.

Data set [4] can be described thus: Cell viability assay (Cell Counting Kit-8).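 Also: PC12 cells in 96-well plates, WST-8 turned into formazan by cellular dehydrogenases, absorbance read at 450 nm after 2 h with the reagent, signal proportional to living cell number.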 The conditions noted are these: % PC12 cell viability compared to untreated control.
Text: A Cell Counting Kit-8 (CCK-8) was used as an improvement of the SRB technique used before. By utilizing the highly water-soluble tetrazolium salt WST-8, CCK-8 produces a water-soluble formazan dye upon reduction in the presence of an electron carrier. WST-8 is reduced by dehydrogenases in cells to give a yellow colored product (formazan), which is soluble in the tissue culture medium. The amount of the formazan dye generated by the activity of dehydrogenases in cells is directly proportional to the number of living cells. PC12 cells are plated in 200 μl of complete growth medium the day before the experiment in 96 well plates. […] Subsequently, 100 μl of growth medium is removed and 10 μl of CCK-8 (Cell Counting Kit-8) solution is added. The plate is incubated for 2 hours in the incubator and then placed in the absorbance plate reader. The absorbance must be measured at 450 nm.
The mark [5] stands for this setting: filters: value coefficient, in silico binding, calcium influx, peptide size.
Where [6] appears, read: T30 5 μM + small peptide 0.5 μM.

Ends that are not written are not given here.

As to VHWKAE [NBP-614], the “Value AChE/Viability” value with PC12 cells [1] (Aβ 5 μM + small peptide 0.5 μM) is given as 1.09. The Calcium in the data set with PC12 cells [2] (Aβ + small peptide) amounted to 124.34. The AChE in the data set on PC12 cells [3] (Aβ 5 μM + small peptide 0.5 μM) stood at 85.05%. Also, the viability in data set [4] (Aβ 5 μM + small peptide 0.5 μM) stood at 77.7%.

Consider SYMVHW [NBP-611, SYMVHW], for which the “Value AChE/Viability” value with PC12 cells [1] (Aβ 5 μM + small peptide 0.5 μM) was 1.08. In the data set on PC12 cells [1] (setting [5]), the “neuroprotective agent against Aβ when all four filters are taken into consideration” value was “agents against Aβ”. Further, the Calcium with PC12 cells [2] (Aβ + small peptide) is given as 114.39. Also, the AChE in the data set on PC12 cells [3] (Aβ 5 μM + small peptide 0.5 μM) was found to be 88.60%. For the same substance, the viability in data set [4] (Aβ 5 μM + small peptide 0.5 μM) is 82.2%.

As to MVHWKA [NBP-613, MVHWKA], in the data set with PC12 cells [1] (setting [6]), the “Value AChE/Viability” value is 1. Moreover, the “neuroprotective agent against T30 when all four filters are taken into consideration” value in the data set with PC12 cells [1] (setting [5]) is on record as “neuroprotective agents against T30”. Also, the Calcium in the data set with PC12 cells [2] (T30 + small peptide) turned out to be 102.29. In addition, the “dose-dependent effect on calcium potentiation against T30” value with PC12 cells [2] (dose-dependent experiments, FIGS. 8 and 9) was “protect against T30 effects”. Further, the AChE with PC12 cells [3] (setting [6]) turned out to be 103.45%. Further, the viability in data set [4] (setting [6]) was 103%.

For the substance SYMVHWKAEFHRW [NBP-1311], in the data set with PC12 cells [1] (Aβ 5 μM + small peptide 0.5 μM), the “Value AChE/Viability” value is reported as 1.09. In addition, the Calcium with PC12 cells [2] (Aβ + small peptide) is given as 137.63. The AChE with PC12 cells [3] (Aβ 5 μM + small peptide 0.5 μM) is reported as 93.51%. Further, in data set [4] (Aβ 5 μM + small peptide 0.5 μM), the viability is 86.1%.

Turning to HWKAEFHR [NBP-801], the “Value AChE/Viability” value with PC12 cells [1] (Aβ 5 μM + small peptide 0.5 μM) was determined as 1.06. Moreover, the Calcium in the data set with PC12 cells [2] (Aβ + small peptide) came to 168.66. Further, the AChE in the data set on PC12 cells [3] (Aβ 5 μM + small peptide 0.5 μM) came to 108.63%. In addition, the viability in data set [4] (Aβ 5 μM + small peptide 0.5 μM) was found to be 102%.

Take FHRWSS [NBP-606]: the “Value AChE/Viability” value with PC12 cells [1] (setting [6]) amounted to 1.05. Also, the Calcium in the data set with PC12 cells [2] (T30 + small peptide) is given as 131.85. Besides, the AChE with PC12 cells [3] (setting [6]) came to 107.88%. Also, the viability in data set [4] (setting [6]) turned out to be 103%.

For the substance RWSSYMVHWKAEFH [NBP-1408], the “Value AChE/Viability” value in the data set with PC12 cells [1] (setting [6]) was 1. The Calcium in the data set with PC12 cells [2] (T30 + small peptide) worked out at 80.25. For the same substance, the AChE with PC12 cells [3] (setting [6]) is listed as 93.64%. In addition, the viability in data set [4] (setting [6]) was 93.6%.

On to FHRWSSYMVHWK [NBP-1206], for which the “Value AChE/Viability” value with PC12 cells [1] (Aβ 5 μM + small peptide 0.5 μM) is given as 1.04. The Calcium with PC12 cells [2] (Aβ + small peptide) is reported as 127.27. Moreover, the AChE in the data set with PC12 cells [3] (Aβ 5 μM + small peptide 0.5 μM) is reported as 96.92%. The viability in data set [4] (Aβ 5 μM + small peptide 0.5 μM) was 93.6%.

WSSYMVH [NBP-709]: the “Value AChE/Viability” value in the data set with PC12 cells [1] (Aβ 5 μM + small peptide 0.5 μM) worked out at 1.07. The Calcium in the data set on PC12 cells [2] (Aβ + small peptide) was determined as 288.61. Besides, the AChE in the data set on PC12 cells [3] (Aβ 5 μM + small peptide 0.5 μM) is recorded as 108.99%. Also, the viability in data set [4] (Aβ 5 μM + small peptide 0.5 μM) was determined as 102%.

For the substance SSYMVHWKAEFHRW [NBP-1410], the “Value AChE/Viability” value in the data set on PC12 cells [1] (Aβ 5 μM + small peptide 0.5 μM) and in the data set on PC12 cells [1] (setting [6]) was 1 throughout. In addition, the Calcium in the data set with PC12 cells [2] (Aβ + small peptide) was 160.54; with PC12 cells [2] (T30 + small peptide), 120.09. Moreover, the AChE with PC12 cells [3] (Aβ 5 μM + small peptide 0.5 μM) and in the data set with PC12 cells [3] (setting [6]) was 93.51% in each case. In addition, the viability in data set [4] (Aβ 5 μM + small peptide 0.5 μM) and in data set [4] (setting [6]) was 93.5% throughout.

As for SSYMVHWKAEFH [NBP-1210], the “Value AChE/Viability” value with PC12 cells [1] (Aβ 5 μM + small peptide 0.5 μM) was 1.01. Also, the Calcium in the data set with PC12 cells [2] (Aβ + small peptide) came out at 127.83. Further, in the data set with PC12 cells [3] (Aβ 5 μM + small peptide 0.5 μM), the AChE is 98.18%. The viability in data set [4] (Aβ 5 μM + small peptide 0.5 μM) worked out at 97.5%.

On to HRWSSYMVHWK [NBP-1107], for which the “Value AChE/Viability” value in the data set with PC12 cells [1] (setting [6]) is on record as 1. Moreover, the Calcium in the data set with PC12 cells [2] (T30 + small peptide) is 95.43. Moreover, the AChE in the data set with PC12 cells [3] (setting [6]) worked out at 93.13%. Besides, the viability in data set [4] (setting [6]) worked out at 93.1%.

As for KAEFHRWSSYMVH [NBP-1303], in the data set on PC12 cells [1] (Aβ 5 μM + small peptide 0.5 μM), the “Value AChE/Viability” value came out at 1.06. Further, the Calcium with PC12 cells [2] (Aβ + small peptide) is 106.33. For the same substance, the AChE in the data set on PC12 cells [3] (Aβ 5 μM + small peptide 0.5 μM) is on record as 96.73%. In addition, the viability in data set [4] (Aβ 5 μM + small peptide 0.5 μM) was found to be 91.2%.

In the case of HRWSSYM [NBP-707], the “Value AChE/Viability” value in the data set with PC12 cells [1] (setting [6]) worked out at 1. Further, in the data set on PC12 cells [2] (T30 + small peptide), the Calcium is 120.17. The AChE in the data set with PC12 cells [3] (setting [6]) is listed as 98.35%. Further, in data set [4] (setting [6]), the viability stood at 98.5%.

For WSSYMVHWKAEFHR [NBP-1409], the “Value AChE/Viability” value with PC12 cells [1] (setting [6]) is recorded as 1. Also, the Calcium with PC12 cells [2] (T30 + small peptide) was determined as 94.59. For the same substance, the AChE with PC12 cells [3] (setting [6]) was 94.85%. Also, in data set [4] (setting [6]), the viability came out at 94.8%.

In the case of RWSSYMV [NBP-708, RWSSYMV], the “Value AChE/Viability” value in the data set on PC12 cells [1] (setting [6]) is reported as 1. The “neuroprotective agent against T30 when all four filters are taken into consideration” value in the data set on PC12 cells [1] (setting [5]) is listed as “neuroprotective agents against T30”. In addition, the Calcium with PC12 cells [2] (T30 + small peptide) came to 97.04. Also, in the data set on PC12 cells [3] (setting [6]), the AChE was 97.79%. Besides, in data set [4] (setting [6]), the viability was 97.8%.

As for KAEFH [NBP-503], the “Value AChE/Viability” value in the data set on PC12 cells [1] (Aβ 5 μM + small peptide 0.5 μM) was 1.07. Besides, the Calcium in the data set with PC12 cells [2] (Aβ + small peptide) came out at 195.67. Moreover, the AChE in the data set on PC12 cells [3] (Aβ 5 μM + small peptide 0.5 μM) is 117.63%. Also, in data set [4] (Aβ 5 μM + small peptide 0.5 μM), the viability is 110%.
